Legend:
[1] = target: T1, human σ1 receptor (Homo sapiens, UniProt Q99720); experiment: Human σ1 receptor radioligand assay ([3H](+)-pentazocine); assay type: binding; conditions: transfected HEK-293 membranes, 5 nM [3H](+)-pentazocine, 37° C., 120 minutes; read-out: Binding σ-[…] (binding to σ1-receptor expressed as Ki)
T1 construct: expressed in transfected cells; host or cells: HEK-293
Protocol: Human σ1 Receptor Radioligand Assay
(§1) NBS (non-specific binding) was measured by adding 10 μM haloperidol. The binding of the test compound was measured at either one concentration (% inhibition at 1 or 10 µM) or five different concentrations to determine affinity values (Ki). Plates were incubated at 37° C. for 120 minutes. After the incubation period, the reaction mix was then transferred to MultiScreen HTS, FC plates (Millipore), filtered and plates were washed 3 times with ice-cold 10 mM Tris-HCL (pH7.4). Filters were dried and counted at approximately 40% efficiency in a MicroBeta scintillation counter (Perkin-Elmer) using EcoScint liquid scintillation cocktail.

[2] = target: T2, human σ2/TMEM97 receptor (Homo sapiens, UniProt Q5BJF2); experiment: Binding assay to human σ2/TMEM97 receptor ([3H]-DTG); conditions: transfected HEK-293 membranes, 10 nM [3H]-DTG, 25° C., 120 minutes; read-out: Binding σ-[…] (binding to σ2-receptor expressed as Ki)
T2 construct: expressed in transfected cells; host or cells: HEK-293
Protocol: Binding Assay to Human σ2/TMEM97 Receptor.
as §1, with “Transfected HEK-293 membranes (15 μg) were incubated with 10 nM [^3H]-1,3-Di-o-tolylguanidine (DTG) in assay buffer containing Tris-HCl 50 mM at pH 8.0. NSB” for “NBS”, “25°” for “37°”, “was” for “was then”, “and” for “and plates were”, “(pH 8.0).” for “(pH7.4).”

T1 sequence (Q99720 whole entry): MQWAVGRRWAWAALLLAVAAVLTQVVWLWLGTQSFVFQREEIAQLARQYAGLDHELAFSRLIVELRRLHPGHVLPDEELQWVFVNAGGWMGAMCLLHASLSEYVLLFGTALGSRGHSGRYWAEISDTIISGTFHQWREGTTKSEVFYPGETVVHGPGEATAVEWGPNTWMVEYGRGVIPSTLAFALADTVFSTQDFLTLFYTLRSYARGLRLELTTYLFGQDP
T2 sequence (Q5BJF2 whole entry): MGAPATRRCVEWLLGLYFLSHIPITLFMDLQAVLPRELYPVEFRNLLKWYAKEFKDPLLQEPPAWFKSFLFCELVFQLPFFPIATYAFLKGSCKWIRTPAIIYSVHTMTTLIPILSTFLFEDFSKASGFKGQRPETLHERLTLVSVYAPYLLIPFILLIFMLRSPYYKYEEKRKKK

Row | Ki [1] [nM] | Ki [2] [nM] | Structure (SMILES)
1 | < 100 | < 100 | Cc1ccc2c(n1)C(C)(C)CN2C(=O)[C@H]1CC[C@H](N(C)Cc2cc(F)cc(F)c2)CC1 [Example 168, ((1r,4r)-4-((3,5-difluorobenzyl)(methyl)amino)cyclohexyl)(3,3,5-trimethyl-2,3-dihydro-1H-pyrrolo[3,2-b]pyridin-1-yl)methanone]
2 | 100 to 500 | < 100 | CC1(C)CN(C(=O)N2CCC3(CCN(Cc4cccc(C#N)c4)CC3)C2)c2cccnc21 [Example 90, 3-((2-(3,3-dimethyl-2,3-dihydro-1H-pyrrolo[3,2-b]pyridine-1-carbonyl)-2,8-diazaspiro[4.5]decan-8-yl)methyl)benzonitrile]
3 | 100 to 500 | < 100 | CC1(C)CN(C(=O)N2CCC3(CCN(Cc4ccc(F)cn4)CC3)C2)c2cccnc21 [Example 154, (3,3-dimethyl-2,3-dihydro-1H-pyrrolo[3,2-b]pyridin-1-yl)(8-((5-fluoropyridin-2-yl)methyl)-2,8-diazaspiro[4.5]decan-2-yl)methanone]
4 | 100 to 500 | < 100 | CN(Cc1ccc(C#N)cc1)C1CCN(C(=O)N2CC(C)(C)c3ncccc32)CC1 [Example 84, 4-(((1-(3,3-dimethyl-2,3-dihydro-1H-pyrrolo[3,2-b]pyridine-1-carbonyl)piperidin-4-yl)(methyl)amino)methyl)benzonitrile]
5 | < 100 | < 100 | Cc1ccc2c(n1)C(C)(C)CN2C(=O)N1CCC2(CCN(Cc3ccccc3)CC2)CC1 [Example 57, (9-benzyl-3,9-diazaspiro[5.5]undecan-3-yl)(3,3,5-trimethyl-2,3-dihydro-1H-pyrrolo[3,2-b]pyridin-1-yl)methanone]
6 | > 1000 | 500 to 1000 | Cc1ccc2c(n1)C(C)(C)CN2C(=O)N1CCC(N(C)Cc2ccncc2)CC1 [Example 75, (4-(methyl(pyridin-4-ylmethyl)amino)piperidin-1-yl)(3,3,5-trimethyl-2,3-dihydro-1H-pyrrolo[3,2-b]pyridin-1-yl)methanone]
7 | < 100 | < 100 | Cc1ccc2c(n1)C(C)(C)CN2C(=O)[C@H]1CC[C@H](N(C)Cc2ccc(F)c(C#N)c2)CC1 [Example 181, 2-fluoro-5-((methyl((1r,4r)-4-(3,3,5-trimethyl-2,3-dihydro-1H-pyrrolo[3,2-b]pyridine-1-carbonyl)cyclohexyl)amino)methyl)benzonitrile]
8 | 100 to 500 | < 100 | Cc1ccc2c(n1)C(C)(C)CN2C(=O)[C@H]1CC[C@H](N(C)CC2CCOCC2)CC1 [Example 185, ((1r,4r)-4-(methyl((tetrahydro-2H-pyran-4-yl)methyl)amino)cyclohexyl)(3,3,5-trimethyl-2,3-dihydro-1H-pyrrolo[3,2-b]pyridin-1-yl)methanone]
9 | < 100 | < 100 | CN(Cc1ccccc1F)[C@H]1CC[C@H](C(=O)N2CC(C)(C)c3ncccc32)CC1 [Example 175, (3,3-dimethyl-2,3-dihydro-1H-pyrrolo[3,2-b]pyridin-1-yl)((1r,4r)-4-((2-fluorobenzyl)(methyl)amino)cyclohexyl)methanone]
10 | < 100 | < 100 | CC1(C)CN(C(=O)N2CCC3(CCN(Cc4ccccc4F)CC3)CC2)c2cccnc21 [Example 145, (3,3-dimethyl-2,3-dihydro-1H-pyrrolo[3,2-b]pyridin-1-yl)(9-(2-fluorobenzyl)-3,9-diazaspiro[5.5]undecan-3-yl)methanone]
11 | < 100 | < 100 | CC1(C)CN(C(=O)N2CCC3(CCN(Cc4cccc(F)c4)CC3)C2)c2cccnc21 [Example 152, (3,3-dimethyl-2,3-dihydro-1H-pyrrolo[3,2-b]pyridin-1-yl)(8-(3-fluorobenzyl)-2,8-diazaspiro[4.5]decan-2-yl)methanone]
12 | 500 to 1000 | 100 to 500 | CN(Cc1cccc(F)c1)C1CCN(C(=O)N2CC(C)(C)c3ncccc32)CC1 [Example 85, (3,3-dimethyl-2,3-dihydro-1H-pyrrolo[3,2-b]pyridin-1-yl)(4-((3-fluorobenzyl)(methyl)amino)piperidin-1-yl)methanone]
13 | < 100 | > 1000 | CN(Cc1ccccc1)[C@H]1CC[C@H](C(=O)N2CC(C)(C)c3nc(C(F)(F)F)ccc32)CC1 [Example 186, ((1r,4r)-4-(benzyl(methyl)amino)cyclohexyl)(3,3-dimethyl-5-(trifluoromethyl)-2,3-dihydro-1H-pyrrolo[3,2-b]pyridin-1-yl)methanone]
14 | < 100 | < 100 | Cc1ccc2c(n1)C(C)(C)CN2C(=O)[C@H]1CC[C@H](N(C)Cc2ccccc2)CC1 [Example 140, ((1r,4r)-4-(benzyl(methyl)amino)cyclohexyl)(3,3,5-trimethyl-2,3-dihydro-1H-pyrrolo[3,2-b]pyridin-1-yl)methanone]
15 | > 1000 | < 100 | CN(Cc1ccccc1)[C@H]1CC[C@H](NC(=O)N2CC(C)(C)c3ncccc32)CC1 [Example 71, N-((1r,4r)-4-(benzyl(methyl)amino)cyclohexyl)-3,3-dimethyl-2,3-dihydro-1H-pyrrolo[3,2-b]pyridine-1-carboxamide]
16 | < 100 | 100 to 500 | CC(C)CCN(C)[C@H]1CCCCN(C(=O)N2CCc3ncccc32)C1 [Example 122, (S)-(2,3-dihydro-1H-pyrrolo[3,2-b]pyridin-1-yl)(3-(isopentyl(methyl)amino)azepan-1-yl)methanone]
17 | 100 to 500 | < 100 | CC1(C)CN(C(=O)N2CCC3(CCN(CC4CCOCC4)CC3)CC2)c2cccnc21 [Example 166, (3,3-dimethyl-2,3-dihydro-1H-pyrrolo[3,2-b]pyridin-1-yl)(9-((tetrahydro-2H-pyran-4-yl)methyl)-3,9-diazaspiro[5.5]undecan-3-yl)methanone]
18 | > 1000 | < 100 | Cc1ccc2c(n1)C(C)(C)CN2C(=O)N1CCC2(CCN(Cc3ccncc3)CC2)C1 [Example 99, (8-(pyridin-4-ylmethyl)-2,8-diazaspiro[4.5]decan-2-yl)(3,3,5-trimethyl-2,3-dihydro-1H-pyrrolo[3,2-b]pyridin-1-yl)methanone]
19 | < 100 | > 1000 | CCN(CC)C(CNC(=O)N1CC(C)(C)c2nc(C)ccc21)c1ccccc1 (stereo not shown) [Example 9, N-(2-(diethylamino)-2-phenylethyl)-3,3,5-trimethyl-2,3-dihydro-1H-pyrrolo[3,2-b]pyridine-1-carboxamide]
20 | > 1000 | < 100 | CN(Cc1ccccc1)[C@H]1CCCN(C(=O)N2CCc3ncccc32)C1 [Example 61, (S)-(3-(benzyl(methy)amino)piperidin-1-yl)(2,3-dihydro-1H-pyrrolo[3,2-b]pyridin-1-yl)methanone]
21 | 100 to 500 | < 100 | Cc1ccc2c(n1)C(C)(C)CN2C(=O)N1CCC(N(C)Cc2ccc(F)cc2)CC1 [Example 114, (4-((4-fluorobenzyl)(methyl)amino)piperidin-1-yl)(3,3,5-trimethyl-2,3-dihydro-1H-pyrrolo[3,2-b]pyridin-1-yl)methanone]
22 | < 100 | – | CC1(C)CN(C(=O)NC2CCN(Cc3ccccc3)CC2)c2ccc(C#N)nc21 [Example 30, N-(1-benzylpiperidin-4-yl)-5-cyano-3,3-dimethyl-2,3-dihydro-1H-pyrrolo[3,2-b]pyridine-1-carboxamide]
